Where two headings read alike, the source gives them in different places.
Assays:
[1] = system: HCV 1b-BB7 subgenomic replicon; assay: microbe, parasite or virus in culture; type: cell-based, HCV genotype 1b; conditions: Hepatitis C virus
[2] = biological target: T1, HCV NS5B polymerase 1a-H77-C316Y (Hepatitis C virus genotype 1a, UniProt P27958, C2736Y); assay: biochemical; parameters: species or system HCV genotype 1a
T1 construct: six-histidine tag; made in house; host or cells: E. coli
Outline: (§1)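 E. coli-expressed NS5B (residues 1-570, His-tagged) transcribed a 2.1 kb HCV 1b negative-strand 3′-end RNA template (5 nM) with 20 μM CTP, 20 μM ATP and 0.284 μM [3H]UTP for 3 h at 30° C. Spermine-precipitated RNA was filter-captured and counted by scintillation; IC50 from nonlinear regression.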

[3] = biological target: T2, HCV NS5B polymerase 1a-H77 (Hepatitis C virus genotype 1a, UniProt P27958); assay: biochemical; parameters: species or system HCV genotype 1a
T2 construct: six-histidine tag; made in house; host or cells: E. coli
Outline: as §1

[4] = system: HCV NS5B polymerase 1a-H77-C316Y; assay: biochemical; parameters: species or system HCV genotype 1a; conditions: ratio of enzyme IC50s, 1a H77-C316Y / 1a H77
Outline: as §1

[5] = system: chimeric replicon with genotype 2b NS5B; assay: microbe, parasite or virus in culture; type: cell-based, HCV genotype 2b; conditions: Hepatitis C virus, read-out: 2b chimera 5% FBS EC50
[6] = biological target: T3, HCV NS5B polymerase 1b BK strain (Hepatitis C virus genotype 1b, UniProt P26663); assay: HCV NS5B polymerase enzymatic inhibition assay, strain 1b BK; type: biochemical
T3 construct: six-histidine tag; made in house; host or cells: E. coli
Outline: as §1

[7] = system: chimeric replicon with genotype 4a NS5B; assay: microbe, parasite or virus in culture; type: cell-based, HCV genotype 4a; conditions: Hepatitis C virus, read-out: 4a chimera 5% FBS EC50
[8] = system: HCV 1a-H77 C316Y mutant subgenomic replicon; assay: Stable replicon cell culture assay (luciferase), 1a-H77-C316Y mutant; type: cell-based, HCV genotype 1a; conditions: for EC50: Hepatitis C virus, read-out: Stable Replicon 1a H77-C316Y 5% FBS EC50; for Stable Replicon Fold Resistance C316Y/1a: ratio of stable replicon EC50s, C316Y / 1a H77
[9] = system: chimeric replicon with 2a-J6CF-derived NS5B; assay: microbe, parasite or virus in culture; type: cell-based, HCV genotype 2a; conditions: Hepatitis C virus, read-out: 2a chimera 5% FBS EC50
[10] = system: HCV 1a-H77 subgenomic replicon; assay: microbe, parasite or virus in culture; type: cell-based, HCV genotype 1a; conditions: Hepatitis C virus
[11] = system: chimeric replicon with genotype 3a NS5B; assay: microbe, parasite or virus in culture; type: cell-based, HCV genotype 3a; conditions: Hepatitis C virus, read-out: 3a chimera 5% FBS EC50
[12] = system: HCV 1a-H77 transient subgenomic replicon in Huh-7 derived cell line; assay: microbe, parasite or virus in culture; type: cell-based, HCV genotype 1a; conditions: Hepatitis C virus
Outline: (§2)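 Transient format: T7-transcribed replicon RNA lacking Neo, electroporated into Huh-7-derived cells (5×10^3/well), input RNA checked by luciferase at 4 h. Three-fold compound dilution series, 0.5% DMSO, 4 days at 37° C; EC50 from luciferase signal in lysed cells.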

[13] = system: HCV 1a-H77-C316Y transient subgenomic replicon in Huh-7 derived cell line; assay: microbe, parasite or virus in culture; type: cell-based, HCV genotype 1a; conditions: for EC50: Hepatitis C virus, Huh-7, read-out: Transient Replicon 1a H77-C316Y 5% FBS EC50; for Transient Replicon Fold Resistance C316Y/1a: ratio of transient replicon EC50s, C316Y / 1a H77
Outline: as §2

[14] = stable replicon, strain 1b BB7, 5% FBS + 40% human plasma, read-out: 1b BB7 5% FBS + 40% Human Plasma EC50
[15] = stable replicon, strain 1b BB7, 5% FBS, no human plasma, read-out: 1b BB7 5% FBS EC50
[16] = stable replicon, strain 1b BB7, 5% FBS, read-out: 1b BB7 5% FBS EC50
[17] = enzyme, strain 1a H77, read-out: HCV Polymerase Strain 1a H77 IC50
[18] = enzyme, strain 1b BK, read-out: HCV Polymerase Strain 1b BK IC50
[19] = stable replicon, 5% FBS, absence of human plasma, read-out: Stable Replicon 1a H77 5% FBS EC50
[20] = stable replicon, strain 1a H77, 5% FBS + 40% human plasma, read-out: 1a H77 5% FBS + 40% Human Plasma EC50
[21] = stable replicon, strain 1a H77, 5% FBS, no human plasma, read-out: 1a H77 5% FBS EC50
[22] = stable replicon, strain 1a H77, 5% FBS, read-out: 1a H77 5% FBS EC50
[23] = Huh-7, transient replicon, 5% FBS, read-out: Transient Replicon 1a H77 5% FBS EC50

T2 sequence (P27958 2421-2990): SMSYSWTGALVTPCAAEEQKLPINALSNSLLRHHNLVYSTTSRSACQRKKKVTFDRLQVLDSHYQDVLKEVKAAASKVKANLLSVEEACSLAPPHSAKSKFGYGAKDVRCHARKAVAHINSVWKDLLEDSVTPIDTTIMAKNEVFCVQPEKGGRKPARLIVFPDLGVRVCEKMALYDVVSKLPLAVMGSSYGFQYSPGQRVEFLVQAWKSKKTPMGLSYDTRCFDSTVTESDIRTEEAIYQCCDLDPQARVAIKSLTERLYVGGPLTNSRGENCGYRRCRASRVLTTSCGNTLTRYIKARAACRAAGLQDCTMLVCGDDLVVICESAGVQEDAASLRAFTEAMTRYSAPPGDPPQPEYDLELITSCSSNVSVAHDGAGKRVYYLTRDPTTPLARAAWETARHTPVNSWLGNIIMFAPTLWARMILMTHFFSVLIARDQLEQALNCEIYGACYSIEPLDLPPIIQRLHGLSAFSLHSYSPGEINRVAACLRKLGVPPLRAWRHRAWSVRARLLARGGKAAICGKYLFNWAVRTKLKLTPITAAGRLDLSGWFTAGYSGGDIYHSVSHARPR
T3 sequence (P26663 2420-2989): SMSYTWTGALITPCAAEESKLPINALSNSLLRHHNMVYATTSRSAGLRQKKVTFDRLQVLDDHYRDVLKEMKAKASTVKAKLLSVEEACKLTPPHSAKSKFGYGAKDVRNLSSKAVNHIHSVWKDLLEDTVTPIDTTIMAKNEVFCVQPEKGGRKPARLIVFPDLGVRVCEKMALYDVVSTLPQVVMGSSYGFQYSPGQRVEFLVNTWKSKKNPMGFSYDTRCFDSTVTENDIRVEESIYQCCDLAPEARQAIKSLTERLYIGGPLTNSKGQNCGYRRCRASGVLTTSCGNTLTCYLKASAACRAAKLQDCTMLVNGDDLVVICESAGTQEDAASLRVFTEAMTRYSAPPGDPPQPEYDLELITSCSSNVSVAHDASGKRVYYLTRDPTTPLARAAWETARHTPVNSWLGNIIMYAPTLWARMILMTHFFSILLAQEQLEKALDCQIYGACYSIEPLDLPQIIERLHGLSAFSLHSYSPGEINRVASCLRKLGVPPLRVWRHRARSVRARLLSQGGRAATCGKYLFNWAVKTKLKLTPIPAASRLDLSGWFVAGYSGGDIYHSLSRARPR
T1 sequence (P27958 2421-2990 C2736Y): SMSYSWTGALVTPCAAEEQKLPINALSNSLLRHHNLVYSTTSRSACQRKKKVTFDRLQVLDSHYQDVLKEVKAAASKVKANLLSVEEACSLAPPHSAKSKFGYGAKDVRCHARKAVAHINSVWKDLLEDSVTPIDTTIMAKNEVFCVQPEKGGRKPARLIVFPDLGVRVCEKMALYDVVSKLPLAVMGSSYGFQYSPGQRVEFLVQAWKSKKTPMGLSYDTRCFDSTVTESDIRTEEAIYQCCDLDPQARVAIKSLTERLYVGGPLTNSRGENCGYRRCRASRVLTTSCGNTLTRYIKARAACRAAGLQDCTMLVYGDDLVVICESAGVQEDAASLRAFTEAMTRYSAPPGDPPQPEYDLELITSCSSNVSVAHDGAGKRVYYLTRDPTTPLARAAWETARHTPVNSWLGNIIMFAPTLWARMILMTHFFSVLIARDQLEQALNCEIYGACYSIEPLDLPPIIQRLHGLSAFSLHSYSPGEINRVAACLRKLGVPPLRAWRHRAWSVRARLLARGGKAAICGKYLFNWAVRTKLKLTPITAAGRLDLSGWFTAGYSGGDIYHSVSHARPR

CS(=O)(=O)N(CCc1csc(N)n1)c1cc2oc(-c3ccc(F)cc3)c(-c3ncc[nH]3)c2cc1C1CC1 [Example 97, N-[2-(2-amino-1,3-thiazol-4-yl)ethyl]-N-[5-cyclopropyl-2-(4-fluorophenyl)-3-(1H-imidazol-2-yl)-1-benzofuran-6-yl]methanesulfonamide]
EC50 [1, 14]: 644 nM | EC50 [1, 15]: 62 nM | EC50 [1, 16]: 62 nM | IC50 [2]: 549 nM | IC50 [3, 17]: 6 nM | C316Y/1a Fold Resistance [4]: 92 fold | EC50 [5]: 895 nM | IC50 [6, 18]: 39 nM | EC50 [7]: 528 nM | EC50 [8]: 3770 nM | Stable Replicon Fold Resistance C316Y/1a [8]: 34.9 fold | EC50 [9]: 595 nM | EC50 [10, 19]: 108 nM | EC50 [10, 20]: 721 nM | EC50 [10, 21]: 108 nM | EC50 [10, 22]: 108 nM | EC50 [11]: 36 nM

CS(=O)(=O)N(CCCc1nsc(=O)[nH]1)c1cc2oc(-c3ccc(F)cc3)c(-c3ncc[nH]3)c2cc1C1CC1 [Example 178, N-[5-cyclopropyl-2-(4-fluorophenyl)-3-(1H-imidazol-2-yl)-1-benzofuran-6-yl]-N-[3-(5-oxo-4,5-dihydro-1,2,4-thiadiazol-3-yl)propyl]methanesulfonamide]
EC50 [1, 14]: 274 nM | EC50 [1, 15]: 18 nM | EC50 [1, 16]: 18 nM | IC50 [2]: 828 nM | IC50 [3, 17]: 13 nM | C316Y/1a Fold Resistance [4]: 64 fold | EC50 [5]: 91.3 nM | IC50 [6, 18]: 65 nM | EC50 [7]: 239 nM | EC50 [8]: 544 nM | Stable Replicon Fold Resistance C316Y/1a [8]: 10.0 fold | EC50 [9]: 116 nM | EC50 [10, 19]: 54.4 nM | EC50 [10, 20]: 431 nM | EC50 [10, 21]: 54.4 nM | EC50 [10, 22]: 54.4 nM | EC50 [11]: 24.4 nM

CS(=O)(=O)N(CCCCO)c1cc2oc(-c3ccc(F)cc3)c(-c3noc(=O)[nH]3)c2cc1C1CC1 [Example 185, N-[5-cyclopropyl-2-(4-fluorophenyl)-3-(5-oxo-4,5-dihydro-1,2,4-oxadiazol-3-yl)-1-benzofuran-6-yl]-N-(4-hydroxybutyl)methanesulfonamide]
EC50 [1, 14]: 10000 nM | EC50 [1, 15]: 1000 nM | EC50 [1, 16]: 1000 nM | IC50 [2]: 20000 nM | IC50 [3, 17]: 2300 nM | C316Y/1a Fold Resistance [4]: 9 fold | EC50 [5]: 1000 nM | IC50 [6, 18]: 9000 nM | EC50 [7]: > 1000 nM | EC50 [8]: 10000 nM | Stable Replicon Fold Resistance C316Y/1a [8]: 10.0 fold | EC50 [9]: 1000 nM | EC50 [10, 19]: 1000 nM | EC50 [10, 20]: 10000 nM | EC50 [10, 21]: 1000 nM | EC50 [10, 22]: 1000 nM | EC50 [11]: 770 nM

CC1NC(c2c(-c3ccc(F)cc3)oc3cc(N(CCO)S(C)(=O)=O)c(C4CC4)cc23)=NO1 (centres unmarked) [Example 158, N-[5-cyclopropyl-2-(4-fluorophenyl)-3-(5-methyl-4,5-dihydro-1,2,4-oxadiazol-3-yl)-1-benzofuran-6-yl]-N-(2-hydroxyethyl)methanesulfonamide]
EC50 [1, 14]: 335 nM | EC50 [1, 15]: 23.5 nM | EC50 [1, 16]: 23.5 nM | IC50 [2]: 160 nM | IC50 [3, 17]: 8.3 nM | C316Y/1a Fold Resistance [4]: 19 fold | EC50 [5]: 205 nM | EC50 [12, 23]: 19.5 nM | EC50 [13]: 304 nM | Transient Replicon Fold Resistance C316Y/1a [13]: 16 fold | IC50 [6, 18]: 36.3 nM | EC50 [7]: 176 nM | EC50 [8]: 1150 nM | Stable Replicon Fold Resistance C316Y/1a [8]: 49.4 fold | EC50 [9]: 302 nM | EC50 [10, 19]: 23.3 nM | EC50 [10, 20]: 260 nM | EC50 [10, 21]: 23.3 nM | EC50 [10, 22]: 23.3 nM | EC50 [11]: 43 nM

CS(=O)(=O)N(CCCc1n[nH]c(=O)o1)c1cc2oc(-c3ccc(F)cc3)c(-c3ncc[nH]3)c2cc1C1CC1 [Example 179, N-[5-cyclopropyl-2-(4-fluorophenyl)-3-(1H-imidazol-2-yl)-1-benzofuran-6-yl]-N-[3-(5-oxo-4,5-dihydro-1,3,4-oxadiazol-2-yl)propyl]methanesulfonamide]
EC50 [1, 14]: 78 nM | EC50 [1, 15]: 9 nM | EC50 [1, 16]: 9 nM | IC50 [2]: 45 nM | IC50 [3, 17]: 4 nM | C316Y/1a Fold Resistance [4]: 11 fold | EC50 [5]: 84.9 nM | IC50 [6, 18]: 25 nM | EC50 [7]: 77.8 nM | EC50 [8]: 686 nM | Stable Replicon Fold Resistance C316Y/1a [8]: 70.0 fold | EC50 [9]: 66 nM | EC50 [10, 19]: 9.8 nM | EC50 [10, 20]: 52 nM | EC50 [10, 21]: 9.8 nM | EC50 [10, 22]: 9.8 nM | EC50 [11]: 10.5 nM

CNS(=O)(=O)CCCN(c1cc2oc(-c3ccc(F)cc3)c(-c3ncc[nH]3)c2cc1C1CC1)S(C)(=O)=O [Example 86, 3-{[5-cyclopropyl-2-(4-fluorophenyl)-3-(1H-imidazol-2-yl)-1-benzofuran-6-yl](methylsulfonyl)amino}-N-methylpropane-1-sulfonamide]
EC50 [1, 14]: 41 nM | EC50 [1, 15]: 6.7 nM | EC50 [1, 16]: 6.7 nM | IC50 [2]: 56 nM | IC50 [3, 17]: 5 nM | C316Y/1a Fold Resistance [4]: 11 fold | EC50 [5]: 137 nM | EC50 [12, 23]: 2.8 nM | EC50 [13]: 92.1 nM | Transient Replicon Fold Resistance C316Y/1a [13]: 33 fold | IC50 [6, 18]: 18 nM | EC50 [7]: 108 nM | EC50 [9]: 64.2 nM | EC50 [10, 19]: 12.3 nM | EC50 [10, 20]: 86 nM | EC50 [10, 21]: 12.3 nM | EC50 [10, 22]: 12.3 nM | EC50 [11]: 11.5 nM

Cc1c[nH]c(-c2c(-c3ccc(F)cc3)oc3cc(N(CCO)S(C)(=O)=O)c(C4CC4)cc23)n1 [Example 189, N-[5-cyclopropyl-2-(4-fluorophenyl)-3-(4-methyl-1H-imidazol-2-yl)-1-benzofuran-6-yl]-N-(2-hydroxyethyl)methanesulfonamide]
EC50 [1, 14]: 445 nM | EC50 [1, 15]: 114 nM | EC50 [1, 16]: 114 nM | IC50 [2]: 461 nM | IC50 [3, 17]: 25.5 nM | C316Y/1a Fold Resistance [4]: 18 fold | EC50 [5]: 1860 nM | EC50 [12, 23]: 139 nM | EC50 [13]: 326 nM | Transient Replicon Fold Resistance C316Y/1a [13]: 2 fold | IC50 [6, 18]: 470 nM | EC50 [7]: 2940 nM | EC50 [9]: 1050 nM | EC50 [10, 19]: 163 nM | EC50 [10, 20]: 774 nM | EC50 [10, 21]: 163 nM | EC50 [10, 22]: 163 nM | EC50 [11]: 231 nM

CS(=O)(=O)N(CCC1CCS(=O)(=O)C1)c1cc2oc(-c3ccc(F)cc3)c(-c3ncc[nH]3)c2cc1C1CC1 (centres unmarked) [Example 61, N-[5-cyclopropyl-2-(4-fluorophenyl)-3-(1H-imidazol-2-yl)-1-benzofuran-6-yl]-N-[2-(1,1-dioxidotetrahydrothiophen-3-yl)ethyl]methanesulfonamide]
EC50 ([1]; read-out: 1b BB7 5% FBS + 40% Human Plasma EC50): 18.4 nM | EC50 ([1]; read-out: 1b BB7 5% FBS EC50): 3 nM | IC50 [2]: 76 nM | IC50 [3]: 8.9 nM | C316Y/1a Fold Resistance [4]: 9 fold | EC50 [5]: 29.9 nM | EC50 ([12]; Huh-7, read-out: Transient Replicon 1a H77 5% FBS EC50): 3.6 nM | EC50 [13]: 45.8 nM | Transient Replicon Fold Resistance C316Y/1a [13]: 13 fold | IC50 [6]: 16 nM | EC50 [7]: 18.4 nM | EC50 [9]: 41 nM | EC50 ([10]; read-out: 1a H77 5% FBS + 40% Human Plasma EC50): 72.2 nM | EC50 ([10]; read-out: 1a H77 5% FBS EC50): 5.4 nM | EC50 ([10]; read-out: Stable Replicon 1a H77 5% FBS EC50): 5.4 nM | EC50 [11]: 6.2 nM
